Tests used:
C. auris = experiment: microbe, parasite or virus in culture; assay type: cell-based, Candida auris; settings: 50 μM azoffluxin, Etest
Description: FIGS. 2A-2E illustrate the above-described screening of the BU-CMD which identified azoffluxin as a fluconazole (FLC) potentiator against C. auris. […] Growth, as determined by optical density at 600 nm (OD600), is plotted in the presence of each CMD compound alone on the y-axis and in combination with FLC on the x-axis. Dotted lines represent 7-median absolute deviations from the median for each condition. […] FIG. 2B depicts the synergistic interactions. […] Growth was measured by the OD600 and normalized to the no drug control (see color bar). The fractional inhibitory concentration index (FICI) was calculated to determine the chemical interaction, with a value below 0.5 indicating synergy. […] FIG. 2D depicts FLC Etest strips in the presence and absence of 50 μM azoffluxin. A total of 1×10^6 C. auris cells were added to YPD agar plates, the E-test strip was added, and plates were incubated at 30° C. for 24 hours prior to imaging. FIG. 2. […] Dose-response assay where a two-fold dilution of azoffluxin was titered starting from 50 μM. Indicated titrations have a background concentration of FLC of 32 μg/mL, 4 μg/mL, 0.25 μg/mL, and 0.5 μg/mL for C. auris Ci6684 (Erg11Y132F), C. albicans (SN95), C. glabrata (BG2) or S. cerevisiae (BY4741), respectively. […] Dose response assays were incubated for 48 hours at 30° C. in RPMI. Growth in each well was plotted by the relative optical density to the respective no drug control (See color bar in FIG. 2B).
Compound potency was assessed alone by dose response assays or in combination with another compound by dose-response matrixes in 96-well plates, or 384-well, flat-bottom, microtiter plates (Corning) as previously described. Plates were incubated at 30° C. for the indicated time period. Growth was quantified by measuring OD600 and corrected for medium background. All strains were assessed in biological duplicate experiments with technical duplicates. […] For dose-response matrixes fractional inhibitory concentration index at 90% growth inhibition (FICI90) was calculated as previously described. […]

C. glabrata (BG2) = experiment: Azoffluxin dose-response with background fluconazole; assay type: cell-based, Candida glabrata
Description: FIGS. 2A-2E illustrate the above-described screening of the BU-CMD which identified azoffluxin as a fluconazole (FLC) potentiator against C. auris. […] Growth, as determined by optical density at 600 nm (OD600), is plotted in the presence of each CMD compound alone on the y-axis and in combination with FLC on the x-axis. Dotted lines represent 7-median absolute deviations from the median for each condition. […] FIG. 2B depicts the synergistic interactions. […] Growth was measured by the OD600 and normalized to the no drug control (see color bar). The fractional inhibitory concentration index (FICI) was calculated to determine the chemical interaction, with a value below 0.5 indicating synergy. […] FIG. 2D depicts FLC Etest strips in the presence and absence of 50 μM azoffluxin. […]
Compound potency was assessed alone by dose response assays or in combination with another compound by dose-response matrixes in 96-well plates, or 384-well, flat-bottom, microtiter plates (Corning) as previously described. […] Growth was quantified by measuring OD600 and corrected for medium background. All strains were assessed in biological duplicate experiments with technical duplicates. […] For dose-response matrixes fractional inhibitory concentration index at 90% growth inhibition (FICI90) was calculated as previously described. […]

293T cells = 293T cells grown without C. auris (luciferase signal); assay type: cell-based, human; settings: 293T cells without C. auris, any treatment condition
Description: FIG. 10A depicts mammalian embryonic kidney (293T) cells expressing luciferase used to quantify mammalian cell growth in co-culture. Mammalian cells were seeded in 384-well plates in DMEM medium at 5×10^5 cells/mL overnight. After 24 hours the indicated concentration of compound (⋅ indicates combo treatment concentrations) was added along with 2.5×10^3 cells/mL of C. auris. Co-cultures were incubated for 48 hours at 37° C. and then the luminescence was measured as an output of mammalian cell growth. Error represents standard deviation between technical quadruplicates, (***) indicates a p-value<0.001 between 293T cells alone and co-culture growth for each condition. […] FIG. 10C depicts checkerboard assays performed as described in FIG. 2B with C. auris Clade IV isolate B11801. Relative growth was measured after 24 hours using OD600 and normalized to no-drug control wells (see color bar). The FICI calculated for each checkerboard is shown in the top right of each plot, with values<0.5 indicating synergy. FIG. 10D depicts kidney fungal burden (CFU) in mice from each treatment group (n=3) that had been infected with C. auris B11801. […] The significance of differences between combination treatment and treatment with each compound alone was determined by two-tailed unpaired student t-test, (***) p-value<0.001. […]

C. auris B11801 = experiment: Kidney fungal burden (CFU) in infected mice; assay type: in vivo; settings: azoffluxin 10 mg/Kg SC four-times daily + fluconazole 32 mg/Kg IP twice daily, four days
Description: FIG. 10A depicts mammalian embryonic kidney (293T) cells expressing luciferase used to quantify mammalian cell growth in co-culture. Mammalian cells were seeded in 384-well plates in DMEM medium at 5×10^5 cells/mL overnight. After 24 hours the indicated concentration of compound (⋅ indicates combo treatment concentrations) was added along with 2.5×10^3 cells/mL of C. auris. Co-cultures were incubated for 48 hours at 37° C. and then the luminescence was measured as an output of mammalian cell growth. […] FIG. 10C depicts checkerboard assays performed as described in FIG. 2B with C. auris Clade IV isolate B11801. Relative growth was measured after 24 hours using OD600 and normalized to no-drug control wells (see color bar). The FICI calculated for each checkerboard is shown in the top right of each plot, with values<0.5 indicating synergy. […] Input is the CFU recovered in an aliquot of the fungal suspension use to inoculate mice. […] Fluconazole was administered at 32 mg/Kg IP twice daily and azoffluxin at 10 mg/Kg SC four-times daily. Error bars; SD, n=3 mice/treatment group.

C. neoformans = experiment: Fluconazole efficacy with azoffluxin; assay type: cell-based, Cryptococcus neoformans; settings: despite increasing Nile red
From the text: FIGS. 11A and 11B illustrate Nile red Accumulation in C. albicans, C. glabrata, and C. neoformans.

SMILES: C=C(C)C[C@@H](O)COc1cc2c(cc1C1(c3cc4c(cc3OC[C@H](O)CC(=C)C)OCO4)C(=O)Nc3cc(F)ccc31)OCO2 [CMLD012336]
- fluconazole MIC in presence of azoffluxin (C. auris): 16 µg/mL
- reduction of fluconazole MIC (C. auris; solid medium): > 16 fold
- enhancement of fluconazole efficacy (C. glabrata (BG2); C. glabrata, despite increasing Nile red): did not enhance the efficacy of fluconazole
- enhancement of fluconazole activity (C. glabrata (BG2); fluconazole-sensitive laboratory strain BG2, background FLC 0.25 μg/mL): did not enhance the activity of fluconazole
- mammalian cytotoxicity (293T cells): no detectable mammalian cytotoxicity
- antifungal activity of fluconazole in mice (kidney CFU) (C. auris B11801): markedly increases the antifungal activity of fluconazole
- enhancement of fluconazole efficacy (C. neoformans): did not enhance the efficacy of fluconazole
